The test has as its system SH13 H7N9 virus. Details: species or system mice. Particulars: mouse, in vivo.

For poly IC, the “protection from lethal SH13 H7N9 challenge” value is “did not provide any benefit over the vaccine alone”.

The values are drawn from US20220362153A1, “COMPOSITIONS AND METHODS FOR PULMONARY SURFACTANT-BIOMIMETIC NANOPARTICLES” (priority 2019, published 2022).
